This assay deals with HSP90α (Homo sapiens, UniProt P07900). Briefly: competitive fluorescence polarization with geldanamycin-FITC. It counts as binding. In general terms: Fluorescence polarisation rises when a labelled molecule tumbles more slowly, as on binding a larger partner.

One may read the IC50 as the concentration that inhibits the measured activity by half. Compound `O=C1C=C(Nc2ccc3cnccc3c2)c2ccccc2C1=O` [YZ129, 4-(isoquinolin-6-ylamino)naphthalene-1,2-dione] displayed an IC50 of 29.5 nM.

Values taken from publication PMC6430684 (Cell chemical biology, 2019).
